According to PubChem BioAssay (NCI):
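Assay format: 96-well plates, 48-hour exposure. TGI denotes the concentration required for complete inhibition of growth.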

Columns and labels:
Assay in all cases: growth of human tumour cells (NCI), 48 h
786-0 renal = tested on: 786-0 renal
A498 renal = tested on: A498 renal
A549 NSCLC = tested on: A549 NSCLC
ACHN renal = tested on: ACHN renal
CAKI-1 renal = tested on: CAKI-1 renal
CCRF-CEM leukemia = tested on: CCRF-CEM leukemia
COLO 205 colon = tested on: COLO 205 colon
DLD-1 colon = tested on: DLD-1 colon
DMS 114 small cell lung = tested on: DMS 114 small cell lung
DMS 273 small cell lung = tested on: DMS 273 small cell lung
EKVX NSCLC = tested on: EKVX NSCLC
HCC-2998 colon = tested on: HCC-2998 colon
HCT-116 colon = tested on: HCT-116 colon
HCT-15 colon = tested on: HCT-15 colon
HL-60(TB) leukemia = tested on: HL-60(TB) leukemia
HOP-18 NSCLC = tested on: HOP-18 NSCLC
HOP-62 NSCLC = tested on: HOP-62 NSCLC
HOP-92 NSCLC = tested on: HOP-92 NSCLC
HT29 colon = tested on: HT29 colon
IGROV1 ovarian = tested on: IGROV1 ovarian
K-562 leukemia = tested on: K-562 leukemia
KM12 colon = tested on: KM12 colon
KM20L2 colon = tested on: KM20L2 colon
LOX IMVI melanoma = tested on: LOX IMVI melanoma
LXFL 529 NSCLC = tested on: LXFL 529 NSCLC
M14 melanoma = tested on: M14 melanoma
M19-MEL melanoma = tested on: M19-MEL melanoma
MALME-3M melanoma = tested on: MALME-3M melanoma
MOLT-4 leukemia = tested on: MOLT-4 leukemia
NCI-H226 lung = tested on: NCI-H226 lung
NCI-H23 lung = tested on: NCI-H23 lung
NCI-H460 lung = tested on: NCI-H460 lung
NCI-H522 lung = tested on: NCI-H522 lung
OVCAR-3 ovarian = tested on: OVCAR-3 ovarian
OVCAR-4 ovarian = tested on: OVCAR-4 ovarian
OVCAR-5 ovarian = tested on: OVCAR-5 ovarian
OVCAR-8 ovarian = tested on: OVCAR-8 ovarian
RPMI-8226 leukemia = tested on: RPMI-8226 leukemia
RXF 393 renal = tested on: RXF 393 renal
SF-268 CNS = tested on: SF-268 CNS
SF-295 CNS = tested on: SF-295 CNS
SF-539 CNS = tested on: SF-539 CNS
SK-MEL-2 melanoma = tested on: SK-MEL-2 melanoma
SK-MEL-28 melanoma = tested on: SK-MEL-28 melanoma
SK-MEL-5 melanoma = tested on: SK-MEL-5 melanoma
SK-OV-3 ovarian = tested on: SK-OV-3 ovarian
SN12C renal = tested on: SN12C renal
SNB-19 CNS = tested on: SNB-19 CNS
SNB-75 CNS = tested on: SNB-75 CNS
SNB-78 CNS = tested on: SNB-78 CNS
SR leukemia = tested on: SR leukemia
SW-620 colon = tested on: SW-620 colon
TK-10 renal = tested on: TK-10 renal
UACC-257 melanoma = tested on: UACC-257 melanoma
UACC-62 melanoma = tested on: UACC-62 melanoma
UO-31 renal = tested on: UO-31 renal
XF 498 CNS = tested on: XF 498 CNS

Q: What does the source list for `CN(C)CC1CCC(=C2CCCC2)C1=O` (stereo unspecified)?
A: TGI (786-0 renal): 19.7 µM; TGI (A498 renal): 35.4 µM; TGI (A549 NSCLC): 39.8 µM; TGI (ACHN renal): 21.4 µM; TGI (CAKI-1 renal): > 100 µM; TGI (CCRF-CEM leukemia): 9.54 µM; TGI (COLO 205 colon): 33.4 µM; TGI (DLD-1 colon): 7.02 µM; TGI (DMS 114 small cell lung): 25 µM; TGI (DMS 273 small cell lung): 34.8 µM; TGI (EKVX NSCLC): 34.7 µM; TGI (HCC-2998 colon): 32.5 µM; TGI (HCT-116 colon): 29.3 µM; TGI (HCT-15 colon): 15.9 µM; TGI (HL-60(TB) leukemia): 15.4 µM; TGI (HOP-18 NSCLC): 31.2 µM; TGI (HOP-62 NSCLC): 19.1 µM; TGI (HOP-92 NSCLC): 20.1 µM; TGI (HT29 colon): 32.6 µM; TGI (IGROV1 ovarian): 34.4 µM; TGI (K-562 leukemia): 8.76 µM; TGI (KM12 colon): 25.6 µM; TGI (KM20L2 colon): 36.3 µM; TGI (LOX IMVI melanoma): 31.8 µM; TGI (LXFL 529 NSCLC): 12.6 µM; TGI (M14 melanoma): 23.3 µM; TGI (M19-MEL melanoma): 32.9 µM; TGI (MALME-3M melanoma): 11 µM; TGI (MOLT-4 leukemia): > 20.7 µM; TGI (NCI-H226 lung): 32.2 µM; TGI (NCI-H23 lung): 36.3 µM; TGI (NCI-H460 lung): 45.8 µM; TGI (NCI-H522 lung): 3.39 µM; TGI (OVCAR-3 ovarian): 26.3 µM; TGI (OVCAR-4 ovarian): 31 µM; TGI (OVCAR-5 ovarian): 30.9 µM; TGI (OVCAR-8 ovarian): 39.1 µM; TGI (RPMI-8226 leukemia): 4.81 µM; TGI (RXF 393 renal): 27.9 µM; TGI (SF-268 CNS): 26.4 µM; TGI (SF-295 CNS): > 100 µM; TGI (SF-539 CNS): 40 µM; TGI (SK-MEL-2 melanoma): 33.5 µM; TGI (SK-MEL-28 melanoma): 27.4 µM; TGI (SK-MEL-5 melanoma): 32 µM; TGI (SK-OV-3 ovarian): > 100 µM; TGI (SN12C renal): 24.9 µM; TGI (SNB-19 CNS): > 100 µM; TGI (SNB-75 CNS): 30.7 µM; TGI (SNB-78 CNS): 34.4 µM; TGI (SR leukemia): 21.1 µM; TGI (SW-620 colon): > 20.9 µM; TGI (TK-10 renal): 25.2 µM; TGI (UACC-257 melanoma): 31.8 µM; TGI (UACC-62 melanoma): 31.4 µM; TGI (UO-31 renal): 32.3 µM; TGI (XF 498 CNS): 12.4 µM

Q: What does the source list for `C/C(CCn1[nH]c(=O)ccc1=O)=N\N=C(N)N`?
A: TGI (786-0 renal): > 100 µM; TGI (A498 renal): > 100 µM; TGI (A549 NSCLC): > 100 µM; TGI (ACHN renal): > 100 µM; TGI (CAKI-1 renal): > 100 µM; TGI (CCRF-CEM leukemia): > 100 µM; TGI (DLD-1 colon): > 100 µM; TGI (DMS 114 small cell lung): > 100 µM; TGI (DMS 273 small cell lung): > 100 µM; TGI (EKVX NSCLC): > 100 µM; TGI (HCC-2998 colon): > 100 µM; TGI (HCT-116 colon): > 100 µM; TGI (HCT-15 colon): > 100 µM; TGI (HL-60(TB) leukemia): > 100 µM; TGI (HOP-18 NSCLC): > 100 µM; TGI (HOP-62 NSCLC): > 100 µM; TGI (HOP-92 NSCLC): > 100 µM; TGI (HT29 colon): > 100 µM; TGI (IGROV1 ovarian): > 100 µM; TGI (K-562 leukemia): > 100 µM; TGI (KM12 colon): > 100 µM; TGI (KM20L2 colon): > 100 µM; TGI (LOX IMVI melanoma): > 100 µM; TGI (LXFL 529 NSCLC): > 100 µM; TGI (M14 melanoma): > 100 µM; TGI (M19-MEL melanoma): > 100 µM; TGI (MALME-3M melanoma): > 100 µM; TGI (MOLT-4 leukemia): > 100 µM; TGI (NCI-H226 lung): > 100 µM; TGI (NCI-H23 lung): > 100 µM; TGI (NCI-H460 lung): > 100 µM; TGI (OVCAR-3 ovarian): > 100 µM; TGI (OVCAR-4 ovarian): > 100 µM; TGI (OVCAR-5 ovarian): > 100 µM; TGI (OVCAR-8 ovarian): > 100 µM; TGI (RPMI-8226 leukemia): > 100 µM; TGI (RXF 393 renal): > 100 µM; TGI (SF-268 CNS): > 100 µM; TGI (SF-295 CNS): > 100 µM; TGI (SF-539 CNS): > 100 µM; TGI (SK-MEL-2 melanoma): > 100 µM; TGI (SK-MEL-28 melanoma): > 100 µM; TGI (SK-MEL-5 melanoma): > 100 µM; TGI (SN12C renal): > 100 µM; TGI (SNB-19 CNS): > 100 µM; TGI (SNB-75 CNS): > 100 µM; TGI (SNB-78 CNS): > 100 µM; TGI (SR leukemia): > 100 µM; TGI (SW-620 colon): > 100 µM; TGI (TK-10 renal): > 100 µM; TGI (UACC-257 melanoma): > 100 µM; TGI (UACC-62 melanoma): > 100 µM; TGI (UO-31 renal): > 100 µM; TGI (XF 498 CNS): > 100 µM
